How the values were obtained:
COV504 cells = assay: Inhibition of cell proliferation, CyQUANT Direct, COV504; format: cell-based; details: Homo sapiens; COV504 ovarian cancer cells, 72-hour; read-out: COV 504 proliferation calculated IC50
COV318 cells = assay: Inhibition of cell proliferation, CyQUANT Direct, COV318; format: cell-based; details: Homo sapiens; COV318 ovarian cancer cells, 72-hour; read-out: COV 318 proliferation calculated IC50
MB453 cells = assay: Inhibition of cell proliferation, CyQUANT Direct, MB453; format: cell-based, human; details: Homo sapiens; MB453 triple negative breast cancer cells, 72-hour; read-out: MB 453 proliferation calculated IC50
[1] = molecular target: CDK12 (aa686-1082)/Cyclin K complex (Homo sapiens, UniProt Q9NYV4); assay: CDK12 kinase inhibition assay (Caliper/LabChip EZ Reader)
[2] = molecular target: CDK7/Cyclin H/MAT1 complex (Homo sapiens, UniProt P50613); assay: CDK7 kinase inhibition assay (Caliper/LabChip EZ Reader)
Method: (§1) Compounds of the invention were assayed for inhibition of CDK7, CDK9, CDK12, and CDK2 activity at Biortus Biosciences (Jiangyin, Jiangsu Province, P.R. of China) using kinase assays for each CDK developed with a Caliper/LabChip EZ Reader (Perkin Elmer, Waltham, MA).
(§2) Furthermore, the CDK9 inhibition assay used CDK9/Cyclin T1 complex (8 nM) and “5-FAM-CDK9tide” peptide substrate (2 μM, synthesized fluorophore-labeled peptide with the following sequence: 5-FAM-GSRTPMY-NH2 (SEQ ID NO:2) where 5-FAM is defined above and NH2 signifies a C-terminal amide) with 10 mM MgCl2 in the buffer composition listed above. The CDK12 inhibition assay used CDK12 (aa686-1082)/Cyclin K complex (50 nM) and “5-FAM-CDK9tide” (2 μM) as defined above, with 2 mM MgCl2 in the buffer composition above. Additionally, the CDK2 inhibition assay used CDK2/Cyclin E1 complex (0.5 nM) and “5-FAM-CDK7tide” (2 μM) as defined above, with 2 mM MgCl2 in the buffer composition listed above.
(§3) The incubation period at 27° C. for each CDK inhibition assay was chosen such that the fraction of phosphorylated peptide product produced in each assay, relative to the total peptide concentration, was approximately 20% (±5%) for the uninhibited kinase (35 min. for CDK7, 35 min. for CDK2, 3 hr. for CDK12, 15 min. for CDK9).

CDK2/Cyclin E1 complex = CDK2/Cyclin E1 complex (Homo sapiens, UniProt P24941); assay: CDK2 kinase inhibition assay (Caliper/LabChip EZ Reader)
CDK9/Cyclin T1 complex = CDK9/Cyclin T1 complex (Homo sapiens, UniProt P50750); assay: CDK9 kinase inhibition assay (Caliper/LabChip EZ Reader)
Method: as §1, §2, §3

HCC70 cells = assay: Inhibition of cell proliferation, CyQUANT Direct, HCC70; format: cell-based, human; details: Homo sapiens; HCC70 triple negative breast cancer cells, 72-hour; read-out: HCC 70 proliferation calculated IC50

Chain of CDK12 (aa686-1082)/Cyclin K complex (Q9NYV4 686-1082): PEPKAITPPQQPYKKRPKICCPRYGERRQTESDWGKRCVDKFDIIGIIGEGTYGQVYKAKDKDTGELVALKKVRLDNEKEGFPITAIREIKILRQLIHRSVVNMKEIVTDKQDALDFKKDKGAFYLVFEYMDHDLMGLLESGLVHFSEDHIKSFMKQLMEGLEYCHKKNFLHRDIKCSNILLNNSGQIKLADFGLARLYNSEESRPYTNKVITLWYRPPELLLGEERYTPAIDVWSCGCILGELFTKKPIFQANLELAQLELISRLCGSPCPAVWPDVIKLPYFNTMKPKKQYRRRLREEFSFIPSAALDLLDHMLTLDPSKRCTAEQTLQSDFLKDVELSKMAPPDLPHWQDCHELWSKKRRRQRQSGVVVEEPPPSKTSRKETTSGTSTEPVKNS
Chain of CDK12 (aa686-1082)/Cyclin K complex (O75909 whole entry partner, the tested form may be a part): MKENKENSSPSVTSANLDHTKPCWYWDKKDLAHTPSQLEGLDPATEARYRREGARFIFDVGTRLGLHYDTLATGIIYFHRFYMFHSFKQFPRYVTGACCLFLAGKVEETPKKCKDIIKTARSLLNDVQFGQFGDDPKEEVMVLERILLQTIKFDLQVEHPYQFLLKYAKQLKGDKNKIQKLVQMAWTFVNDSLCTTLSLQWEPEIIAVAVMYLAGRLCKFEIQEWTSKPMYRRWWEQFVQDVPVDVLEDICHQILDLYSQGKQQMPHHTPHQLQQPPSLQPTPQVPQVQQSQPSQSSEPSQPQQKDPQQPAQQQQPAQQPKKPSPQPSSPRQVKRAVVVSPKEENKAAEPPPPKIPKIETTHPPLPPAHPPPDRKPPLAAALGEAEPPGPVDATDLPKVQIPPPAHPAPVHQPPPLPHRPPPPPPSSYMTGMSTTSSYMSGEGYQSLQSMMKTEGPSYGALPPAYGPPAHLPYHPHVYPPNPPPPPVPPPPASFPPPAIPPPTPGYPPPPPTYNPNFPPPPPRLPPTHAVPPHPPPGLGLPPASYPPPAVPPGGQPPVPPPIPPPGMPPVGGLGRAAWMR
Chain of CDK9/Cyclin T1 complex (P50750 whole entry): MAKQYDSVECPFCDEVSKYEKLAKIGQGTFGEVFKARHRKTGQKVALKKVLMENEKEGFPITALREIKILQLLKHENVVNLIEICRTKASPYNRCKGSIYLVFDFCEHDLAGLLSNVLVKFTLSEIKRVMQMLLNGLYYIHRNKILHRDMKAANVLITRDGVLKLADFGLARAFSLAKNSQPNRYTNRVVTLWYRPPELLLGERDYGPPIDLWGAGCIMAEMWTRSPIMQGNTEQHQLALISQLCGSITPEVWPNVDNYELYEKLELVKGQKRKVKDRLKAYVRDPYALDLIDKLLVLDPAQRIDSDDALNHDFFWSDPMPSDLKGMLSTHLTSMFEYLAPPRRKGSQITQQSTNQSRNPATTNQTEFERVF
Chain of CDK9/Cyclin T1 complex (O60563 whole entry partner): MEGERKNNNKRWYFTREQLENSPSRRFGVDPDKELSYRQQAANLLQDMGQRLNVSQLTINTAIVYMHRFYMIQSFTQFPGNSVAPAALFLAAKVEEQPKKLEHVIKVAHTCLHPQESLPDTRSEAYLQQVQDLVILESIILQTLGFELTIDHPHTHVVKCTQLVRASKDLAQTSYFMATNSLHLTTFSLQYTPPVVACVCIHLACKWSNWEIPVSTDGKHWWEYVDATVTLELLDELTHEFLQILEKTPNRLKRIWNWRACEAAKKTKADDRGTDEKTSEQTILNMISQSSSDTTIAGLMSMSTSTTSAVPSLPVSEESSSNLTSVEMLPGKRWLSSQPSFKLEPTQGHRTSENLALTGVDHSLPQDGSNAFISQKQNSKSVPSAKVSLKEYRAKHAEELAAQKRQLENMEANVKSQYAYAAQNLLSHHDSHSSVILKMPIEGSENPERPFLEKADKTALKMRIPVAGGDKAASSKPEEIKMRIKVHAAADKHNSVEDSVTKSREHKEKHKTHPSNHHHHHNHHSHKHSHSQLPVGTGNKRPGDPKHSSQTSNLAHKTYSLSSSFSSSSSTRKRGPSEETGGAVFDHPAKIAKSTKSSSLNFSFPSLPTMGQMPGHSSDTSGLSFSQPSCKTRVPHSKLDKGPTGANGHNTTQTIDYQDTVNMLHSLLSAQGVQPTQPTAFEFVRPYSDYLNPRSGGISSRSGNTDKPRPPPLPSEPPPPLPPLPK
Chain of CDK7/Cyclin H/MAT1 complex (P50613 whole entry): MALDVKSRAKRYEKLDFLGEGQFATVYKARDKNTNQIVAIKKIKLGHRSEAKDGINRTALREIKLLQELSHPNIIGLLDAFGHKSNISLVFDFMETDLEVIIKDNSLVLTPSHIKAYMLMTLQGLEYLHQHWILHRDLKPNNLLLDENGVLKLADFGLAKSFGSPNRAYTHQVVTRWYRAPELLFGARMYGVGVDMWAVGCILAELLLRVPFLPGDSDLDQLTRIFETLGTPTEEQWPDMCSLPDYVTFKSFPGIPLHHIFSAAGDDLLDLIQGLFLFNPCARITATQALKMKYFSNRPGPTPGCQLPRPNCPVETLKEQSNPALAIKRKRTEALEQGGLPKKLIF
Chain of CDK7/Cyclin H/MAT1 complex (P51946 whole entry partner): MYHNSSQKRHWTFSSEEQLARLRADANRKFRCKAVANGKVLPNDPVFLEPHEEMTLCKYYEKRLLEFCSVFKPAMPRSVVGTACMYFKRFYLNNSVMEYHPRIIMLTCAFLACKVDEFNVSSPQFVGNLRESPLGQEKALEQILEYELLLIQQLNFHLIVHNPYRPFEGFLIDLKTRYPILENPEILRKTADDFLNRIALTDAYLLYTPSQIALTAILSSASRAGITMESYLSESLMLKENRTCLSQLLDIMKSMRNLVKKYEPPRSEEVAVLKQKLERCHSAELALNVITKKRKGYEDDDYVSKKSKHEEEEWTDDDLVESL
Chain of CDK7/Cyclin H/MAT1 complex (P51948 whole entry partner): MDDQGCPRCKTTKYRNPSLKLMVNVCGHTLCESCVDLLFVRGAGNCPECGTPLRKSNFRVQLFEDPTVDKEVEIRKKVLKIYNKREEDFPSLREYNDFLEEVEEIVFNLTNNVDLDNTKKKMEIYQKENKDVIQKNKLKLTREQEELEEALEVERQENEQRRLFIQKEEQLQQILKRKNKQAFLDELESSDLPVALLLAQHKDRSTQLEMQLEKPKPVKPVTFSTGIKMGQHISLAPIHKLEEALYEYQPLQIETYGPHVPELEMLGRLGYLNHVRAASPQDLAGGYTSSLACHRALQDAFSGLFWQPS

Compound | IC50 (COV504 cells) [nM] | IC50 (COV318 cells) [nM] | IC50 (MB453 cells) [nM] | IC50 [1] [nM] | IC50 [2] [nM] | IC50 (CDK2/Cyclin E1 complex) [nM] | IC50 (CDK9/Cyclin T1 complex) [nM] | IC50 (HCC70 cells) [nM]
N#Cc1ccc2c(-c3nc(N[C@H]4CCC[C@@H]4N4CCCC4)ncc3C(F)(F)F)c[nH]c2c1 [Compound 122] | 100 to 500 | 100 to 500 | 100 to 500 | > 500 | 30 to 100 | > 500 | > 500 | 100 to 500
Cc1noc(C)c1-c1ccc2c(-c3nc(N[C@@H]4C[C@H]5CC[N@](CC5)C4)ncc3C(F)(F)F)cn(S(=O)(=O)c3ccccc3)c2n1 [Compound 142, (3R)—N-[4-[1-(benzenesulfonyl)-6-(3,5-dimethylisoxazol-4-yl)pyrrolo[2,3-b]pyridin-3-yl]-5-(trifluoromethyl)pyrimidin-2-yl]-1-azabicyclo[3.2.2]nonan-3-amine] | 100 to 500 | 100 to 500 | 100 to 500 | > 500 | < 30 | > 500 | > 500 | 100 to 500
CCN[C@H]1CCC[C@@H]1Nc1ncc(C(F)(F)F)c(-c2c[nH]c3cc(C#N)ccc23)n1 [Compound 128, 3-[2-[[(1S,2S)-2-(ethylamino)cyclopentyl]-amino]-5-(trifluoromethyl)pyrimidin-4-yl]-1H-indole-6-carbonitrile] | < 100 | 100 to 500 | < 100 | > 500 | < 30 | > 500 | > 500 | < 100
Cc1noc(C)c1-c1ccc2c(-c3nc(NC4CC[C@@H]4N4CCCC4)ncc3C(F)(F)F)c[nH]c2n1 (stereo in doubt) [Compound 149, 4-[6-(3,5-dimethylisoxazol-4-yl)-1H-pyrrolo[2,3-b]pyridin-3-yl]-N-(2-pyrrolidin-1-ylcyclobutyl)-5-(trifluoromethyl) pyrimidin-2-amine] | < 100 | > 2000 | < 100 | > 500 | < 30 | > 500 | > 500 | < 100
Cc1noc(C)c1-c1ccc2c(-c3nc(NC4CCCC4N)ncc3C(F)(F)F)c[nH]c2n1 (centres unmarked) [Compound 127] | < 100 | 100 to 500 | < 100 | > 500 | < 30 | > 500 | > 500 | < 100
N#Cc1ccc2c(-c3nc(N[C@H]4C[C@H]5CC[C@@H]4N5)ncc3C(F)(F)F)c[nH]c2c1 [Compound 114, 3-[2-[[(1S,2S,4R)-7-azabicyclo[2.2.1]heptan-3-yl]-amino]-5-(trifluoromethyl)pyrimidin-4-yl]-1H-indole-6-carbonitrile] | < 100 | 100 to 500 | < 100 | > 500 | < 30 | > 500 | > 500 | 100 to 500
Cc1noc(C)c1-c1ccc2c(-c3nc(N[C@H]4CCCC4N4CCCC4)ncc3C(F)(F)F)c[nH]c2n1 (stereo partly drawn) [Compound 144, 4-[6-(3,5-dimethylisoxazol-4-yl)-1H-pyrrolo[2,3-b]pyridin-3-yl]-N-[(1S)-2-pyrrolidin-1-ylcyclopentyl]-5-(trifluoromethyl) pyrimidin-2-amine] | < 100 | < 100 | < 100 | > 500 | < 30 | > 500 | > 500 | 100 to 500
Cc1noc(C)c1-c1ccc2c(-c3nc(N[C@H]4CCC[C@@H]4NCCO)ncc3C(F)(F)F)c[nH]c2n1 [Compound 154, 2-[[(1S,2S)-2-[[4-[6-(3,5-dimethylisoxazol-4-yl)-1H-pyrrolo [2,3-b]pyridin-3-yl]-5-(trifluoromethyl)pyrimidin-2-yl]amino]cyclopentyl]amino]ethanol] | < 100 | 100 to 500 | < 100 | > 500 | < 30 | > 500 | > 500 | < 100
Cc1noc(C)c1-c1ccc2c(-c3nc(N[C@H]4CCC[C@H]4N4CC(F)(F)C4)ncc3C(F)(F)F)c[nH]c2n1 [Compound 167, N-[(1S,2R)-2-(3,3-difluoroazetidin-1-yl)cyclopentyl]-4-[6-(3,5-dimethylisoxazol-4-yl)-1H-pyrrolo[2,3-b]pyridin-3-yl]-5-(trifluoromethyl)pyrimidin-2-amine] | > 2000 | > 2000 | > 2000 | > 500 | > 500 | > 500 | > 500 | > 2000
CCN[C@H]1CC[C@@H]1Nc1ncc(C(F)(F)F)c(-c2c[nH]c3cc(C#N)ccc23)n1 [Compound 131, 3-[2-[[(1S,2S)-2-(ethylamino)cyclobutyl]-amino]-5-(trifluoromethyl)pyrimidin-4-yl]-1H-indole-6-carbonitrile] | 100 to 500 | 500 to 2000 | 100 to 500 | > 500 | < 30 | > 500 | > 500 | 500 to 2000
Cc1noc(C)c1-c1ccc2c(-c3nc(N[C@H]4CCC[C@@H]4N4CC(O)C4)ncc3C(F)(F)F)c[nH]c2n1 [Compound 159, 1-[(1S,2S)-2-[[4-[6-(3,5-dimethylisoxazol-4-yl)-1H-pyrrolo[2,3-b]pyridin-3-yl]-5-(trifluoromethyl)pyrimidin-2-yl]amino]cyclopentyl] azetidin-3-ol] | 100 to 500 | > 2000 | 100 to 500 | > 500 | < 30 | > 500 | > 500 | < 100
Cc1noc(C)c1-c1ccc2c(-c3nc(N[C@H]4C[C@H]5CC[C@@H]4N5)ncc3C(F)(F)F)c[nH]c2n1 [Compound 139] | 100 to 500 | 500 to 2000 | 100 to 500 | > 500 | < 30 | > 500 | > 500 | 100 to 500
C[C@@H]1C[C@H](Nc2ncc(C(F)(F)F)c(-c3c[nH]c4cc(C#N)ccc34)n2)CN1 [Compound 108] | 500 to 2000 | > 2000 | 500 to 2000 | > 500 | 30 to 100 | > 500 | > 500 | 500 to 2000
